Data on one molecule can be found in patent US11629155B2, “Small molecule antagonist compound TAC5 series having toll-like receptor 3/7/8/9 inhibitory function” (AJOU UNIVERSITY INDUSTRY-ACADEMIC COOPERATION FOUNDATION, priority 2018, dated 2023).

In one experiment the target is T1, TLR4 (Homo sapiens, UniProt O00206+Q9Y6Y9).
T1 construct: endogenous in cells; host or cells: THP1-derived macrophages (PMA-differentiated)
The experiment can be described thus: LPS-induced TNF-α secretion (ELISA) in THP1-derived macrophages. Format: cell-based. Conditions: 1 to 50 μM, FIG. 4D.

The test system of experiment [1] is C57BL/6 mice, IMQ-induced psoriasis. The experiment can be described thus: IMQ-induced psoriasis mouse model. Type of experiment: in vivo. The method, then:
The therapeutic efficacy of TAC5-a was evaluated in a psoriasis mouse model and a SLE mouse model. Psoriasis was induced in 6-7 week old C57BL/6 mice by topically applying 42 mg of IMQ cream (5%) to the shaved back skin of the mice for 6 consecutive days (FIG. 5A). TAC5-a was injected daily at doses of 50, 100 and 200 nmol/g and the effect thereof on severity was analyzed.
Histological analysis and immunochemical staining were performed on skin samples of mouse dorsal lesions. The sample was fixed with 4% paraformaldehyde solution, then embedded in paraffin and cut to 7 μm on a glass slide. The sections were stained with hematoxylin and eosin (H&E) and the thickness of the dermis and epidermis were measured. The thickness of skin was measured with a Leica DMi8 fluorescence microscope using a Leica LAS X Hardware Configurator (Leica Microsystems GmbH, Wetzlar, Germany). IMQ-mediated skin inflammation was evaluated by immunohistochemistry (IHC) using a primary antibody that recognizes CD68 (ab31630, 1:200 dilution) as a macrophage marker. […] The skin was stained with hematoxylin and eosin (H&E) in order to evaluate the thickness of the epidermis (yellow arrow) and dermis (green arrow) in IMQ-induced psoriasis mice and thereby to observe the histopathological changes of skin lesions in each group (FIG. 5G) Immunohistochemical analysis of skin lesions in each group was performed using a primary antibody that recognizes CD68.

In the next experiment the test system is TLR7/8. The experiment can be described thus: TLR7/8-mediated IL-6 expression in THP-1 cells. Format: cell-based, human. To be noted: FIG. 4C.

T1 sequence (O00206 24-839): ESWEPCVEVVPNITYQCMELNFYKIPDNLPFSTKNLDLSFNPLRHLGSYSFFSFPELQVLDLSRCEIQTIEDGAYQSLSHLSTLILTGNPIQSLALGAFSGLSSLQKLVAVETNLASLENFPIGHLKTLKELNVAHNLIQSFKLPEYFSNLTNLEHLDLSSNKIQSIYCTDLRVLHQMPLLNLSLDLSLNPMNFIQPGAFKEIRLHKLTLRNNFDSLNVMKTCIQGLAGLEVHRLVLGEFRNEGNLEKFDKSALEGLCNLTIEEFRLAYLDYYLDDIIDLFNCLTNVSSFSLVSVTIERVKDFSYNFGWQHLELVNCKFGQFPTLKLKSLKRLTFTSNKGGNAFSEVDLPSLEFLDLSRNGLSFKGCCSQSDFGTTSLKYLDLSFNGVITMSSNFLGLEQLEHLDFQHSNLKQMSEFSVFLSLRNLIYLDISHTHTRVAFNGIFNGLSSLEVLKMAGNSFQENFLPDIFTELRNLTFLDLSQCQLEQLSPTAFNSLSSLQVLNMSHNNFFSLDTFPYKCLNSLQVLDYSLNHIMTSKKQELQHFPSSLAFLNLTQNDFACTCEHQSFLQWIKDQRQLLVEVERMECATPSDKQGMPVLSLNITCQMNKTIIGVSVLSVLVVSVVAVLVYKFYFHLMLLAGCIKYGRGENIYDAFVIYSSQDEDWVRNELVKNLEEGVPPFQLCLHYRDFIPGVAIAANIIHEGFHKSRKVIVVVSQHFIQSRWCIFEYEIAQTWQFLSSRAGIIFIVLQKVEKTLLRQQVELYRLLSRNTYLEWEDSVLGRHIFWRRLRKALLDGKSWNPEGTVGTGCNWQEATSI
T1 sequence (Q9Y6Y9 17-160 limits assumed): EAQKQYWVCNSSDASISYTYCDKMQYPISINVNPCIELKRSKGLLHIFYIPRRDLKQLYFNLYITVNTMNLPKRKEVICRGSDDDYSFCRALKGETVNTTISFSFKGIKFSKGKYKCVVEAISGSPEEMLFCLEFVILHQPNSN
Procedure for TLR7/8: RAW264.7 cells (ATCC, Manassas, Va., USA), which are mouse macrophages, were cultured in low-glucose DMEM (Thermo Fisher Scientific Inc.) supplemented with 10% FBS, 100 IU/ml penicillin and 100 μg/ml streptomycin in a culture system. Human monocyte THP1 cells were cultured in RPMI 1640 (Thermo Fisher Scientific Inc.) supplemented with 10% FBS, 100 IU/ml penicillin and 100 μg/ml streptomycin and then differentiation thereof into macrophages was induced using 10 nM phorbol 12-myristate 13-acetate (PMA) (Sigma-Aldrich Co. LLC.) for 24 hours. CL075, R848, CpG-ODN and Poly(I:C) were purchased from InvivoGen (San Diego, Calif., USA), and LPS was purchased from Sigma-Aldrich Co. (St. Louis, Mo., USA).
Cytotoxicity in RAW 264.7 cells was tested by treatment with these compounds at a concentration of 12.5 to 50 μM. […] The inhibitory effect of TAC5-a on TLR-mediated signaling was confirmed by measuring TNF-α secretion through ELISA in THP1-derived macrophages. […] In addition, in order to evaluate the antagonistic effect of TAC5-a on endosomal TLR activation, cells were cultured along with this compound in the presence of R848 (TLR7/8) or CL075 (TLR7/8), imiquimod (IMQ; TLR7), TL8 (TLR8), poly(I:C) (TLR3) or CpG ODN (TLR9) (FIGS. 4E, 4F and 4G).

As to `Nc1cccc(COc2cccnc2N)c1` [TAC5-a, 3-((3-aminobenzyl)oxy)pyridin-2-amine], the “TLR4 (LPS)-mediated TNF-α secretion” value on TLR4 is “did not block”. The “effect on back skin inflammation compared with methotrexate (MTX)” value in experiment [1] (FIG. 5B) was “relatively weaker”. The spleen hypertrophy result in experiment [1] (FIG. 5D) is listed as “adequately prevented”. Further, in experiment [1] (FIG. 5F), the “thickness of the epidermis and the dermis (H&E)” value is on record as “therapeutic effects similar to those of the treatment group were observed”. In addition, the “expression of CD68 in skin lesions (immunohistochemistry)” value in experiment [1] (FIG. 5H) is on record as “effectively reduced”. The “PASI score (psoriasis area and severity index)” value in experiment [1] (fourth day of treatment, decreased from 8.0 or higher, FIG. 5C) is “less than 4.0”. For the same molecule, in experiment [1] (injected daily at 50, 100 and 200 nmol/g, FIG. 5B), the “degree of inflammation in the back skin” value was “reversal of the degree of inflammation was evident”. Moreover, in the experiment on TLR7/8, the “TLR7/8-mediated IL-6 expression” value was “inhibited”.
